Source: patent publication US20080125493A1, “Use of agomelatine in obtaining medicaments intended for the treatment of periventricular leukomalacia” (LES LABORATOIRES SERVIER, priority 2006, published 2008)

System: lesions of the white matter of the brain produced by intracerebral injection of ibotenate
Test: Neuroprotective effects on ibotenate-induced white matter lesions in 5-day-old baby mice
Assay type: in vivo
Procedure: Immediately after the administration of 10 μg of ibotenate, there are injected by the i.p. route, in a final volume of 5 μl, from 0.005 to 5 mg/kg of agomelatine, 10 mg/kg of fluoxetine used as standard antidepressant control, or the solvent alone. In a second experiment, the i.p. injection following the intracerebral injection of ibotenate is carried out 2 hours, 4 hours or 8 hours later.

COc1ccc2cccc(CCNC(C)=O)c2c1 [agomelatine, N-[2-(7-methoxy-1-naphthyl)ethyl]acetamide]
reduction of the lesions of the white matter (5 mg/kg i.p., co-administration immediately after 10 μg ibotenate intracerebral, 5-day-old mice): 59% | effect on the lesions of the white matter (dose dependence) (0.005 to 5 mg/kg i.p., co-administration immediately after 10 μg ibotenate): dose-dependent reduction of the lesions of the white matter | course of lesion size over time (co-treated concomitantly or after 8 hours, same lesions for first 24 hours, then over the next 4 days): very major regression | neuroprotection with delayed administration (i.p. administration 8 hours after the injection of ibotenate): significant neuroprotection is restored | neuroprotection with delayed administration (i.p. administration between 0 and 4 hours after the injection of ibotenate): decreases

CNCCC(Oc1ccc(C(F)(F)F)cc1)c1ccccc1 (stereo not drawn) [fluoxetine, reference compound]
effect on the lesions of the white matter (10 mg/kg i.p., co-administration immediately after 10 μg ibotenate): No significant effect
